What is called melting point is the temperature, or range, at which the solid turns liquid. As for `CCC(COC)Nc1nc(C)nc(N2CCc3cc(OC)cc(Cl)c32)c1C=O` (stereo not shown) [Example 76, 4-(7-chloro-5-methoxy-2,3-dihydro-1H-indol-1-yl)-5-formyl-6-[1-(1-methoxymethyl)propylamino]-2-methylpyrimidine], the melting point is 150 to 153 °C.

The molecule `CCC(C)Nc1cc(N2CCc3cc(OC)cc(Cl)c32)nc(C)n1` (stereo not shown) [Example 310, 4-(7-chloro-5-methoxy-2,3-dihydro-1H-indol-1-yl)-6-(1-methylpropylamino)-2-methylpyrimidine] displayed a melting point of 102 to 105 °C.

With `CCC(CC)n1cc(Cl)nc(N2CCc3cc(Cl)cc(Cl)c32)c1=O` [Example 401, 5-Chloro-3-(5,7-dichloro-2,3-dihydro-1H-indol-1-yl)-1-(1-ethylpropyl)-2(1H)-pyrazinone], the melting point fell in the range of 168 to 170 °C.

`CCC(CCOC)n1cc(Cl)nc(N2CCc3cc(Cl)cc(Cl)c32)c1=O` (stereo not shown) [Example 410, 5-Chloro-3-(5,7-dichloro-2,3-dihydro-1H-indol-1-yl)-1-(1-ethyl-3-methoxypropyl)-2(1H)-pyrazinone] registered a melting point of 95 to 97 °C.

`CCC(COC)n1cc(Cl)nc(N2CCc3cc(OC)cc(Cl)c32)c1=O` (stereo not shown) [Example 413, 5-Chloro-3-(7-chloro-5-methoxy-2,3-dihydro-1H-indol-1-yl)-1-[1-(methoxymethyl)propyl]-2(1H)-pyrazinone]: the melting point is 131 to 133 °C.

For the molecule `CCC(CC)n1cc(C)nc(N2CCc3cc(Cl)cc(Cl)c32)c1=O` [Example 451, 3-(5,7-Dichloro-2,3-dihydro-1H-indol-1-yl)-1-(1-ethylpropyl)-5-methyl-2(1H)-pyrazinone], the melting point was 137 to 139 °C.

Consider `CCC(CC)n1cc(Br)nc(N2CCc3cc(Cl)cc(Cl)c32)c1=O` [Example 507, 5-Bromo-3-(5,7-dichloro-2,3-dihydro-1H-indol-1-yl)-1-(1-ethylpropyl)-2(1H)-pyrazinone], for which the melting point was in the range of 158 to 160 °C.

Consider `CC[C@H](C1CC1)n1cc(Cl)nc(N2CCc3cc(Cl)cc(Cl)c32)c1=O` [Example 511, 5-Chloro-1-[(1R)-1-cyclopropylpropyl]-3-(5,7-dichloro-2,3-dihydro-1H-indol-1-yl)-2(1H)-pyrazinone], for which the melting point fell in the range of 166 to 168 °C.

Molecule `CC[C@H](C1CC1)n1cc(Cl)nc(N2CCc3cc(Br)cc(Br)c32)c1=O` [Example 512, 5-Chloro-1-[(1R)-1-cyclopropylpropyl]-3-(5,7-dibromo-2,3-dihydro-1H-indol-1-yl)-2(1H)-pyrazinone] yielded a melting point of 164 to 165 °C.

In turn, `CC[C@H](C1CC1)n1cc(Cl)nc(N2CCc3cc(OC)c(F)c(Cl)c32)c1=O` [Example 513, 5-Chloro-3-(7-chloro-6-fluoro-5-methoxy-2,3-dihydro-1H-indol-1-yl)-1-[(1R)-1-cyclopropylpropyl]-2(1H)-pyrazinone] came in with a melting point of 128 to 130 °C.

For `CC[C@@H](C1CC1)n1cc(Cl)nc(N2CCc3cc(Cl)cc(Cl)c32)c1=O` [Example 517, 5-Chloro-1-[(1S)-1-cyclopropylpropyl]-3-(5,7-dichloro-2,3-dihydro-1H-indol-1-yl)-2(1H)-pyrazinone], the melting point is 157 to 159 °C.

`CC[C@@H](C1CC1)n1cc(Cl)nc(N2CCc3cc(Br)cc(Br)c32)c1=O` [Example 518, 5-Chloro-1-[(1S)-1-cyclopropylpropyl]-3-(5,7-dibromo-2,3-dihydro-1H-indol-1-yl)-2(1H)-pyrazinone]: the melting point stood at 165 °C.

With `CC[C@@H](C1CC1)n1cc(Cl)nc(N2CCc3cc(OC)c(F)c(Cl)c32)c1=O` [Example 519, 5-Chloro-3-(7-chloro-6-fluoro-5-methoxy-2,3-dihydro-1H-indol-1-yl)-1-[(1S)-1-cyclopropylpropyl]-2(1H)-pyrazinone], the melting point lay in the range of 127 to 129 °C.

`COC[C@@H](C)n1cc(Cl)nc(N2CCc3cc(Cl)cc(Cl)c32)c1=O` [Example 520, 5-Chloro-3-(5,7-dichloro-2,3-dihydro-1H-indol-1-yl)-1-[(1R)-2-methoxy-1-methylethyl]-2(1H)-pyrazinone]: the melting point was 93 to 95 °C.

In the case of `COC[C@@H](C)n1cc(Cl)nc(N2CCc3cc(Br)cc(Br)c32)c1=O` [Example 521, 5-Chloro-3-(5,7-dibromo-2,3-dihydro-1H-indol-1-yl)-1-[(1R)-2-methoxy-1-methylethyl]-2(1H)-pyrazinone], the melting point is 119 to 120 °C.

The molecule `CCC(COC)n1cc(Cl)nc(N2CCc3cc(OC)c(F)c(Cl)c32)c1=O` (stereo not shown) [Example 522, 5-Chloro-3-(7-chloro-6-fluoro-5-methoxy-2,3-dihydro-1H-indol-1-yl)-1-[1-(methoxymethyl)propyl]-2(1H)-pyrazinone] showed a melting point of 140 to 142 °C.

With `CC[C@H](COC)n1cc(Cl)nc(N2CCc3cc(Cl)cc(Cl)c32)c1=O` [Example 524, 5-Chloro-3-(5,7-dichloro-2,3-dihydro-1H-indol-1-yl)-1-[(1R)-1-(methoxymethyl)propyl]-2(1H)-pyrazinone], the melting point is 143 to 146 °C.

As for `CC[C@H](COC)n1cc(Br)nc(N2CCc3cc(Cl)cc(Cl)c32)c1=O` [Example 527, 5-Bromo-3-(5,7-dichloro-2,3-dihydro-1H-indol-1-yl)-1-[(1R)-1-(methoxymethyl)propyl]-2(1H)-pyrazinone], the melting point was 150 to 152 °C.

`CC[C@H](COC)n1cc(Br)nc(N2CCc3cc(OC)c(F)c(Cl)c32)c1=O` [Example 528, 5-Bromo-3-(7-chloro-6-fluoro-5-methoxy-2,3-dihydro-1H-indol-1-yl)-1-[(1R)-1-(methoxymethyl)propyl]-2(1H)-pyrazinone]: the melting point lay in the range of 150 to 152 °C.

As for `CC[C@@H](COC)n1cc(Cl)nc(N2CCc3cc(Cl)cc(Cl)c32)c1=O` [Example 530, 5-Chloro-3-(5,7-dichloro-2,3-dihydro-1H-indol-1-yl)-1-[(1S)-1-(methoxymethyl)propyl]-2(1H)-pyrazinone], the melting point is 143 to 146 °C.

`CC[C@@H](COC)n1cc(Br)nc(N2CCc3cc(Cl)cc(Cl)c32)c1=O` [Example 531, 5-Bromo-3-(5,7-dichloro-2,3-dihydro-1H-indol-1-yl)-1-[(1S)-1-(methoxymethyl)propyl]-2(1H)-pyrazinone]: the melting point is 152 to 154 °C.

In the case of `CSCCn1cc(Cl)nc(N2CCc3cc(Cl)cc(Cl)c32)c1=O` [Example 535, 5-Chloro-3-(5,7-dichloro-2,3-dihydro-1H-indol-1-yl)-1-[2-(methylthio)ethyl]-2(1H)-pyrazinone], the melting point lay in the range of 127 to 128 °C.

`CCC(C)n1cc(Cl)nc(N2CCc3cc(Br)cc(Cl)c32)c1=O` (stereo not shown) [Example 538, 3-(5-Bromo-7-chloro-2,3-dihydro-1H-indol-1-yl)-5-chloro-1-methylpropyl-2(1H)-pyrazinone] yielded a melting point of 150 °C.

The molecule `CCc1cn(C(CC)CC)c(=O)c(N2CCc3cc(Cl)cc(Cl)c32)n1` [Example 539, 3-(5,7-Dichloro-2,3-dihydro-1H-indol-1-yl)-5-ethyl-1-(1-ethylpropyl)-2(1H)-pyrazinone] showed a melting point of 136 to 137 °C.

For the molecule `CCC(CC)n1cc(Cl)nc(N2CCc3cc(Br)cc(Cl)c32)c1=O` [Example 540, 3-(5-Bromo-7-chloro-2,3-dihydro-1H-indol-1-yl)-5-chloro-1-(1-ethylpropyl)-2(1H)-pyrazinone], the melting point lay within 156 to 157 °C.

In the case of `CCC(CC)n1cc(C#N)nc(N2CCc3cc(Cl)cc(Cl)c32)c1=O` [Example 541, 6-(5,7-Dichloro-2,3-dihydro-1H-indol-1-yl)-4-(1-ethylpropyl)-4,5-dihydro-5-oxo-2-pyrazinecarbonitrile], the melting point was in the range of 197 to 199 °C.

`CC[C@H](C1CC1)n1cc(Cl)nc(N2CCc3cc(Br)cc(Cl)c32)c1=O` [Example 542, 3-(5-Bromo-7-chloro-2,3-dihydro-1H-indol-1-yl)-5-chloro-1-[(1R)-1-cyclopropylpropyl]-2(1H)-pyrazinone] displayed a melting point of 154 to 156 °C.

In turn, `CC[C@@H](C1CC1)n1cc(Cl)nc(N2CCc3cc(Br)cc(Cl)c32)c1=O` [Example 543, 3-(5-Bromo-7-chloro-2,3-dihydro-1H-indol-1-yl)-5-chloro-1-[(1S)-1-cyclopropylpropyl]-2(1H)-pyrazinone] had a melting point of 126 to 127 °C.

The molecule `CC[C@H](COC)n1cc(Cl)nc(N2CCc3cc(OC)cc(C#N)c32)c1=O` [Example 546, 1-[6-Chloro-4-[(1R)-1-(methoxymethyl)propyl]-3,4-dihydro-3-oxopyrazinyl]-5-methoxy-2,3-dihydro-1H-indole-7-carbonitrile] registered a melting point of 141 to 142 °C.

`CC[C@H](COC)n1cc(Br)nc(N2CCc3cc(Br)cc(Cl)c32)c1=O` [Example 547, 5-Bromo-3-(5-bromo-7-chloro-2,3-dihydro-1H-indol-1-yl)-1-[(1R)-1-(methoxymethyl)propyl]-2(1H)-pyrazinone] had a melting point of 118 °C.

In turn, `CC[C@@H](COC)n1cc(Cl)nc(N2CCc3cc(Br)cc(Cl)c32)c1=O` [Example 548, 3-(5-Bromo-7-chloro-2,3-dihydro-1H-indol-1-yl)-5-chloro-1-[(1S)-1-(methoxymethyl)propyl]-2(1H)-pyrazinone] returned a melting point of 121 to 122 °C.

`CCC(CC)n1cc(Cl)nc(N2CCCc3cc(OC)cc(Br)c32)c1=O` [Example 550, 3-(8-Bromo-6-methoxy-1,2,3,4-tetrahydroquinoline)-5-chloro-1-(1-ethylpropyl)-2(1H)-pyrazinone] registered a melting point of 125 to 126 °C.

`CC[C@H](C1CC1)n1cc(Cl)nc(N2CCCc3cc(OC)cc(Br)c32)c1=O` [Example 551, 3-(8-Bromo-6-methoxy-1,2,3,4-tetrahydroquinoline)-5-chloro-1-[(1R)-1-cyclopropylpropyl]-2(1H)-pyrazinone] showed a melting point of 127 to 129 °C.

For the molecule `CC[C@@H](C1CC1)n1cc(Cl)nc(N2CCCc3cc(OC)cc(Br)c32)c1=O` [Example 552, 3-(8-Bromo-6-methoxy-1,2,3,4-tetrahydroquinoline)-5-chloro-1-[(1S)-1-cyclopropylpropyl]-2(1H)-pyrazinone], the melting point lay in the range of 118 to 119 °C.

Values taken from patent publication US7205306B2, “Substituted pyrazinones, pyridines and pyrimidines as corticotropin releasing factor ligands” (Bristol-Myers Squibb Pharma Company, priority 2001, dated 2007).
